From ChEMBL document CHEMBL1201862, “PubChem BioAssay data set” (2004) come the findings set out here.

Some test systems named below: 786-0; HCC 2998; HCT-15; HOP-92; IGROV-1; M14; MDA-N; NCI-H522; OVCAR-3; PC-3; SF-295; SN12C; T47D; UACC-257; UACC-62; UO-31; HT-29; Hs-578T; SK-MEL-2; TK-10.
Experiment in all cases: NCI anticancer screen, dose series, 48 h

The structures appear in SMILES notation.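 Five concentrations, 48 hours, 96-well plates. GI50 marks 50% less growth.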 The source made the active and inactive calls. Rule as the data show it: active = GI50 up to about 1.1 µM and inactive = higher.

In the case of `N#Cc1ccsc1Nc1ccccc1[N+](=O)[O-]`, the GI50 was > 100 µM (inactive) in the assay with 786-0; > 100 µM (inactive) in the assay on HCC 2998; > 100 µM in the assay with HCT-15; 68.7 µM (inactive) in the assay on HOP-92; > 100 µM (inactive) with IGROV-1; > 100 µM (inactive) with M14. Further, the GI50 is > 100 µM (inactive) in the assay with MDA-N; 63.7 µM (inactive) with NCI-H522; > 100 µM (inactive) in the assay on OVCAR-3; > 100 µM (inactive) in the assay on PC-3; 64.1 µM (inactive) in the assay on SF-295; > 100 µM (inactive) in the assay on SN12C. The GI50 with T47D, in the assay on UACC-257, with UACC-62 and in the assay with UO-31 was > 100 µM (inactive) in each case.

For `C/C(Cl)=N\OC(=O)Nc1ccccc1C(F)(F)F`, the GI50 with 786-0 was 17.9 µM (inactive); in the assay on HCC 2998 it was > 100 µM (inactive); in the assay with HCT-15, > 100 µM; with HOP-92 it was 6.61 µM (inactive); with HT-29, 18.9 µM (inactive); in the assay with Hs-578T it was > 100 µM (inactive). Moreover, the GI50 with IGROV-1 was > 100 µM (inactive); with MDA-N, 16.4 µM (inactive); in the assay on OVCAR-3, 15.8 µM (inactive); in the assay with PC-3 it was > 100 µM (inactive); in the assay with SF-295 it was > 100 µM (inactive); in the assay on SK-MEL-2, > 100 µM (inactive). The GI50 is > 100 µM (inactive) in the assay on SN12C; 80.2 µM (inactive) in the assay with T47D; 15.4 µM (inactive) in the assay with TK-10; > 100 µM (inactive) in the assay on UACC-257; 64.9 µM (inactive) in the assay with UO-31.

On to `COc1ccc(/C=C2/SC(c3c(O)ccc4ccccc34)N(NC(=O)CCCCCCCCC(=O)NN3C(=O)/C(=C\c4ccc(OC)c(OC)c4)SC3c3c(O)ccc4ccccc34)C2=O)cc1OC` (stereo not drawn), for which the GI50 in the assay on 786-0 is 0.519 µM (active); in the assay with HCC 2998 it was 5.25 µM (inactive); with HCT-15, 0.871 µM; in the assay with HOP-92, 1.09 µM (active); in the assay with HT-29, 3.65 µM (inactive); in the assay with IGROV-1, 0.481 µM (active). Further, the GI50 with M14 is 0.897 µM (active); with MDA-N, 12.8 µM (inactive); in the assay with NCI-H522, 0.472 µM (active); in the assay with OVCAR-3 it was 0.33 µM (active); with PC-3 it was 1.48 µM (inactive); in the assay on SF-295 it was 1.39 µM (inactive). Besides, the GI50 was 1.08 µM (active) in the assay with SK-MEL-2; 3.94 µM (inactive) in the assay with SN12C; 2.19 µM (inactive) in the assay with T47D; 10.4 µM (inactive) in the assay with TK-10; 2.37 µM (inactive) in the assay on UACC-257; 1.56 µM (inactive) in the assay with UACC-62. The GI50 in the assay with UO-31 was 0.486 µM (active).

Turning to `O=C(C/C=C/c1ccccc1)c1ccccc1`, the GI50 was 21.6 µM (inactive) in the assay on 786-0; 18.3 µM (inactive) with HCC 2998; 18.8 µM in the assay with HCT-15; 29 µM (inactive) in the assay with HOP-92; 18.2 µM (inactive) in the assay on HT-29; 21.8 µM (inactive) with Hs-578T. Moreover, the GI50 in the assay on IGROV-1 is 23.5 µM (inactive); in the assay with M14 it was 16.2 µM (inactive); with MDA-N it was 19.8 µM (inactive); with NCI-H522 it was 16.9 µM (inactive); in the assay on OVCAR-3, 41.6 µM (inactive); in the assay with SF-295, 44.4 µM (inactive). For the same molecule, the GI50 is 24.3 µM (inactive) in the assay with SN12C; 16.9 µM (inactive) in the assay on T47D; 23.2 µM (inactive) in the assay on TK-10; 21.9 µM (inactive) in the assay with UACC-257; 12.6 µM (inactive) in the assay on UACC-62; 14.1 µM (inactive) in the assay with UO-31.

`O=C(O)c1cc(Sc2ccc([N+](=O)[O-])c(C(=O)O)c2)ccc1[N+](=O)[O-]`: the GI50 in the assay on 786-0 was > 100 µM (inactive); in the assay with HCT-15, > 100 µM; with HOP-92 it was > 100 µM (inactive); in the assay on HT-29, > 100 µM (inactive); in the assay with Hs-578T, > 100 µM (inactive); in the assay with IGROV-1, > 100 µM (inactive). Moreover, the GI50 with M14, in the assay on MDA-N, with OVCAR-3, in the assay with PC-3, with SF-295 and with SK-MEL-2 was > 100 µM (inactive) in each case. Moreover, the GI50 in the assay on SN12C, in the assay with T47D, in the assay with TK-10, in the assay on UACC-257, with UACC-62 and in the assay on UO-31 was > 100 µM (inactive) each time.

`CCOC(=O)c1csc(NC(=O)C(C)N2CCCC2)n1` (stereo not drawn): the GI50 was > 100 µM (inactive) in the assay with HCC 2998; > 100 µM in the assay with HCT-15; > 100 µM (inactive) in the assay on HOP-92; > 100 µM (inactive) with HT-29; > 100 µM (inactive) with IGROV-1; > 100 µM (inactive) in the assay with M14. The GI50 in the assay on MDA-N, in the assay with OVCAR-3, in the assay with PC-3, in the assay on SF-295, with SK-MEL-2 and with T47D was > 100 µM (inactive) in each case. In addition, the GI50 with TK-10, with UACC-257, with UACC-62 and in the assay on UO-31 was > 100 µM (inactive) each time.

`O=CN1CCN(c2ccc3ccc(O)nc3n2)CC1`: the GI50 in the assay with 786-0 was > 100 µM (inactive); with HCC 2998, > 100 µM (inactive); in the assay with HCT-15, > 100 µM; in the assay with HOP-92 it was > 100 µM (inactive); in the assay on HT-29, > 100 µM (inactive); in the assay on Hs-578T, > 100 µM (inactive). Besides, the GI50 is > 100 µM (inactive) with IGROV-1; > 100 µM (inactive) in the assay on M14; > 100 µM (inactive) in the assay on MDA-N; 51.8 µM (inactive) in the assay with NCI-H522; > 100 µM (inactive) in the assay with OVCAR-3; > 100 µM (inactive) in the assay with PC-3. The GI50 with SF-295, in the assay with SK-MEL-2, with SN12C, with TK-10, in the assay on UACC-257 and in the assay with UACC-62 was > 100 µM (inactive) throughout. In addition, the GI50 in the assay with UO-31 is > 100 µM (inactive).

With `CSc1nc(NCc2ccccc2)c2cnn(COCCO)c2n1`, the GI50 in the assay with 786-0 is > 100 µM (inactive); in the assay on HOP-92, 18.2 µM (inactive); in the assay on HT-29, 37.8 µM (inactive); with IGROV-1, 40.7 µM (inactive); in the assay on M14, 67.8 µM (inactive); in the assay with MDA-N it was 46.9 µM (inactive). In addition, the GI50 with NCI-H522 was 28.6 µM (inactive); in the assay with OVCAR-3, 57.8 µM (inactive); in the assay on PC-3 it was 58.1 µM (inactive); in the assay on SF-295 it was 35.5 µM (inactive); in the assay with SK-MEL-2, 43.7 µM (inactive); in the assay with SN12C, 75 µM (inactive). The GI50 is 53.7 µM (inactive) in the assay with T47D; 61.9 µM (inactive) in the assay on TK-10; 20.3 µM (inactive) in the assay on UACC-257; 43.9 µM (inactive) in the assay with UACC-62; 35.9 µM (inactive) in the assay on UO-31.

For `CCOC(=O)CNC(=O)C(C)NC(=O)C(NC(=O)CC(c1ncc[nH]1)c1ncc[nH]1)C(C)CC` (stereo not drawn), the GI50 was > 100 µM (inactive) in the assay on 786-0; > 100 µM (inactive) in the assay on HCC 2998; > 100 µM in the assay with HCT-15; > 100 µM (inactive) in the assay on HOP-92; > 100 µM (inactive) in the assay with Hs-578T; > 100 µM (inactive) in the assay with IGROV-1. Moreover, the GI50 was 84.9 µM (inactive) in the assay on M14; > 100 µM (inactive) in the assay on MDA-N; > 100 µM (inactive) in the assay with NCI-H522; > 100 µM (inactive) in the assay with OVCAR-3; > 100 µM (inactive) in the assay on SF-295; > 100 µM (inactive) in the assay on SK-MEL-2. Besides, the GI50 in the assay with SN12C, with T47D, with TK-10, in the assay with UACC-257, in the assay on UACC-62 and with UO-31 was > 100 µM (inactive) each time.

Regarding `N=C(N)SCCc1ccncc1`, the GI50 is > 100 µM (inactive) in the assay on 786-0; > 100 µM in the assay with HCT-15; > 100 µM (inactive) with HOP-92; > 100 µM (inactive) in the assay on HT-29; > 100 µM (inactive) in the assay on Hs-578T; > 100 µM (inactive) with IGROV-1. Also, the GI50 in the assay on M14, in the assay on MDA-N, in the assay on OVCAR-3, with PC-3, with SF-295 and with SK-MEL-2 was > 100 µM (inactive) throughout. In addition, the GI50 in the assay on SN12C, in the assay on T47D, in the assay with TK-10, in the assay with UACC-257, with UACC-62 and with UO-31 was > 100 µM (inactive) in each case.

With `Cc1nc(C)c(C(=O)NNC(=O)C[N+](C)(C)C)cc1C(=O)NNC(=O)C[N+](C)(C)C`, the GI50 in the assay with 786-0 is > 100 µM (inactive); in the assay with HCC 2998 it was > 100 µM (inactive); in the assay with HCT-15 it was > 100 µM; in the assay on HOP-92 it was > 100 µM (inactive); with HT-29 it was > 100 µM (inactive); with IGROV-1, > 100 µM (inactive). For the same molecule, the GI50 in the assay with M14, in the assay on MDA-N, with OVCAR-3, in the assay with SF-295, in the assay on SK-MEL-2 and with SN12C was > 100 µM (inactive) in each case. Moreover, the GI50 is 74.1 µM (inactive) in the assay on T47D; > 100 µM (inactive) with TK-10; > 100 µM (inactive) in the assay on UACC-257; > 100 µM (inactive) in the assay on UACC-62; > 100 µM (inactive) in the assay on UO-31.
